# Results published in patent publication US8012956B2, “Tropane compounds” (Exelixis, Inc., priority 2007, dated 2011).
# Biological target: HSP90 (Homo sapiens, UniProt P07900)
# Test: HSP90 inhibition (HSP90 IC50)
# Type: biochemical
row,IC50,SMILES
1,< 500 nM,"Cc1cc(C(=O)N[C@H]2C[C@H]3CC[C@@H](C2)N3c2ccc(C(=O)NC3CN(C(C)C)C3)cn2)c(C)cc1C(N)=O [2,5-dimethyl-N-{8-[5-({[1-(1-methylethyl)azetidin-3-yl]amino}carbonyl)pyridin-2-yl]-8-azabicyclo[3.2.1]oct-3-endo-yl}benzene-1,4-dicarboxamide]"
2,< 500 nM,COc1cccc(C(=O)N[C@H]2C[C@H]3CC[C@@H](C2)N3c2ccc(C(=O)NCc3cccs3)cn2)c1C [6-[3-endo({[2-methyl-3-(methyloxy)phenyl]carbonyl}amino)-8-azabicyclo[3.2.1]oct-8-yl]-N-(2-thienylmethyl)pyridine-3-carboxamide]
3,< 500 nM,"CC(=O)c1ccc(N2[C@@H]3CC[C@H]2C[C@@H](NC(=O)c2ccc(C(N)=O)c(NCC(F)(F)F)c2)C3)nc1 [N4-[8-(5-acetylpyridin-2-yl)-8-azabicyclo[3.2.1]oct-3-endo-yl]-2-[(2,2,2-trifluoroethyl)amino]benzene-1,4-dicarboxamide]"
4,1000 to 2000 nM,"NC(=O)c1ccc(C(=O)N[C@H]2C[C@H]3CC[C@@H](C2)N3c2ccc(C(N)=O)cn2)cc1 [N-{8-[5-(aminocarbonyl)pyridin-2-yl]-8-azabicyclo[3.2.1]oct-3-endo-yl}benzene-1,4-dicarboxamide]"
5,2000 to 10000 nM,"CC(=O)c1ccc(N2[C@@H]3CC[C@H]2C[C@@H](NC(=O)c2ccc(C(N)=O)c(N4CCC4)c2)C3)nc1 [N4-[8-(5-acetylpyridin-2-yl)-8-azabicyclo[3.2.1]oct-3-endo-yl]-2-azetidin-1-ylbenzene-1,4-dicarboxamide]"
6,< 500 nM,COc1cccc(C(=O)N[C@H]2C[C@H]3CC[C@@H](C2)N3c2ccc(C(=O)NCc3ccc(N4CCNCC4)cc3)cn2)c1C [6-[3-endo-({[2-methyl-3-(methyloxy)phenyl]carbonyl}amino)-8-azabicyclo[3.2.1]oct-8-yl]-N-[(4-piperazin-1-ylphenyl)methyl]pyridine-3-carboxamide]
7,< 500 nM,"COc1cc(C(=O)N[C@H]2C[C@H]3CC[C@@H](C2)N3c2ccc(C(=O)C3CC3)cn2)c(C)cc1C(N)=O [N-{8-[5-(cyclopropylcarbonyl)pyridin-2-yl]-8-azabicyclo[3.2.1]oct-3-endo-yl}-2-methyl-5-(methyloxy)benzene-1,4-dicarboxamide]"
8,500 to 999 nM,"Cc1cc(C(=O)N[C@H]2C[C@H]3CC[C@@H](C2)N3c2ccc(C(=O)NC3CCN(C(C)C)CC3)cn2)c(C)cc1C(N)=O [2,5-dimethy˜-N-{8-[5-({[1-(1 methylethyl)piperidin-4-yl]amino}carbonyl)pyridin-2-yl]-8-azabicyclo[3.2.1]oct-3-endo-yl}benzene-1,4-dicarboxamide]"
9,< 500 nM,"CC(=O)c1ccc(N2C3CCC2CC(NC(=O)c2ccc(C(N)=O)c(N[C@@H]4CCOC4)c2)C3)nc1 (stereo partly drawn) [N4-[8-(5-acetylpyridin-2-yl)-8-azabicyclo[3.2.1]oct-3-endo-yl]-2-[(3R)-tetrahydrofuran-3-ylamino]benzene-1,4-dioarboxamide]"

# Further lines, the compound ahead of its results:
row,SMILES,IC50
1,COC(=O)[C@@H](NC(=O)c1ccc(N2C3CCC2CC(NC(=O)c2cccc(OC)c2C)C3)nc1)c1ccc(OC)cc1 (stereo partly drawn),1000 to 2000 nM
2,"CC(=O)c1ccc(N2[C@@H]3CC[C@H]2C[C@@H](NC(=O)c2ccc(C(N)=O)c(Nc4ccccc4)c2)C3)nc1 [N4-[8-(5-acetylpyridin-2-yl)-8-azabicyclo[3.2.1]oct-3-endo-yl]-2-(phenylamino)benzene-1,4-dicarboxamide]",< 500 nM
3,COc1cccc(C(=O)NC2CC3CCC(C2)N3c2ccc(C(=O)NC[C@H](C)O)cn2)c1C (stereo partly drawn) [N-[(2S)-2.hydroxypropyl]-6-[3-endo-({[2-methyl-3-(methyloxy)phenyl]carbonyl}amino)-8-azabicyclo[3.2.1]oct-8-yl]pyridine-3-carboxamide],2000 to 10000 nM
4,COc1cccc(C(=O)N[C@H]2C[C@H]3CC[C@@H](C2)N3c2ccc(C(=O)NN)cn2)c1C [N-{8-[5-(hydrazinocarbonyl)pyridin-2-yl]-8-azabicyclo[3.2.1]oct-3-endo-yl}-2-methyl-3-(methyloxy)benzamide],2000 to 10000 nM
5,COc1cccc(C(=O)N[C@H]2C[C@H]3CC[C@@H](C2)N3c2ccc(C(=O)NCc3c(F)cccc3Cl)cn2)c1C [N-[(2-chloro-6-fluorophenyl)methyl]-6-[3-endo-({[2-methyl-3-(methyloxy)phenyl]carbonyl}amino)-8-azabicyclo[3.2.1]oct-8-yl]pyridine-3-carboxamide],< 500 nM
6,COc1cccc(C(=O)N[C@H]2C[C@H]3CC[C@@H](C2)N3c2ccc(C(N)=O)cn2)c1C#CCCO [6-[3-endo-({[2-(4-hydroxybut-1-yn-1-yl)-3-(methyloxy)phenyl]carbonyl}amino)-8-azabicyclo[3.2.1]oct-8-yl]pyridine-3-carboxamide],2000 to 10000 nM
7,COc1cccc(C(=O)N[C@H]2C[C@H]3CC[C@@H](C2)N3c2ccc(C(=O)NCCc3cccnc3)cn2)c1C [6-[3-endo-({[2-methyl-3-(methyloxy)phenyl]carbonyl}amino)-8-azabicyclo[3.2.1]oct-8-yl]-N-(2-pyridin-3-ylethyl)pyridine-3-carboxamide],1000 to 2000 nM
8,"COc1cccc(C(=O)N[C@H]2C[C@H]3CC[C@@H](C2)N3c2ccc(C(=O)Nc3cc(C)cc(C)c3)cn2)c1C [N-(3,5-dimethylphenyl)-6-[3-endo-({[2-methyl-3-(methyloxy)phenyl]carbonyl}amino)-8-azabicyclo[3.2.1]oct-8-yl]pyridine-3-carboxamide]",2000 to 10000 nM
9,COc1cccc(C(=O)NC2CC3CCC(C2)N3c2ccc(C(=O)N[C@@H](C)c3ccc(N4CCN(C)CC4)cc3)cn2)c1C (stereo partly drawn) [6-[3-endo-({[2-methyl-3-(methyloxy)phenyl]carbonyl}amino)-8-azabicyclo[3.2.1]oct-8-yl]-N-{(1S)-1-[4-(4-methylpiperazin-1-yl)phenyl]ethyl}pyridine-3-carboxamide],< 500 nM
10,"COc1cccc(C(=O)N[C@H]2C[C@H]3CC[C@@H](C2)N3c2ccc(C(=O)NCc3cc(OC)c(OC)c(OC)c3)cn2)c1C [6-[3-endo-({[2-methyl-3-(methyloxy)phenyl]carbonyl}amino)-8-azabicyclo[3.2.1]oct-8-yl]-N-{[3,4,5-tris(methyloxy)phenyl]methyl}pyridine-3-carboxamide]",1000 to 2000 nM
11,"COc1cccc(C(=O)N[C@H]2C[C@H]3CC[C@@H](C2)N3c2ccc(C(=O)NCc3ccc4c(c3)OCO4)cn2)c1C [N-(1,3-benzodioxol-5-ylmethyl)-6-[3-endo-({[2-methyl-3-(methyloxy)phenyl]carbonyl}amino)-8-azabicyclo[3.2.1]oct-8-yl]pyridine-3-carboxamide]",< 500 nM
12,"NC(=O)c1ccc(C(=O)N[C@H]2C[C@H]3CC[C@@H](C2)N3c2ccc(C(=O)C3CCC3)cn2)cc1NCC1CC1 [N4-{8-[5-(cyclobutylcarbonyl)pyridin-2-yl]-8-azabicyclo[3.2.1]oct-3-endo-yl}-2-[(cyclopropylmethyl)amino]benzene-1,4-dicarboxamide]",1000 to 2000 nM
13,"CC[C@@H](C)Nc1c(C(N)=O)cc(C)c(C(=O)NC2CC3CCC(C2)N3c2ccc(C(=O)C3CC3)cn2)c1Cl (stereo partly drawn) [3-chloro-N4-{8-[5-(cyclopropylcarbonyl)pyridin-2-yl]-8-azabicyclo[3.2.1]oct-3-endo-yl}-5-methyl-2-{[(1R)-1-methylpropyl]amino}benzene-1,4-dicarboxamide]",< 500 nM
14,"COc1ccc(C(C)NC(=O)c2ccc(N3[C@@H]4CC[C@H]3C[C@@H](NC(=O)c3cccc(OC)c3C)C4)nc2)cc1OC (stereo partly drawn) [N-{1-[3,4-bis(methyloxy)phenyl]ethyl}-6-[3-endo-({[2-methyl-3-(methyloxy)phenyl]carbonyl}amino)-8-azabicyclo[3.2.1]oct-8-yl]pyridine-3-carboxamide]",500 to 999 nM
15,"Cc1cc(C(=O)N[C@H]2C[C@H]3CC[C@@H](C2)N3c2ccc(C(=O)NCc3ccccc3)cn2)c(C)cc1C(N)=O [2,5-dimethyl-N-[8-(5-{[(phenylmethyl)amino]carbonyl}pyridin-2-yl)-8-azabicyclo[3.2.1]oct-3-endo-yl]benzene-1,4-dicarboxamide]",< 500 nM
16,C#CCNC(=O)c1ccc(N2[C@@H]3CC[C@H]2C[C@@H](NC(=O)c2cccc(OC)c2C)C3)nc1 [6-[3-endo-({[2-methyl-3-(methyloxy)phenyl)carbonyl}amino)-8-azabicyclo(3.2.1]oct-8-yl]-N-prop-2-yn-1-ylpyridine-3-carboxamide],1000 to 2000 nM
17,"CCOCCC(=O)c1ccc(N2[C@@H]3CC[C@H]2C[C@@H](NC(=O)c2ccc(C(N)=O)c(NCC4CC4)c2)C3)nc1 [2-[(cyclopropylmethyl)amino]-N4-(8-{5-[3-(ethyloxy)propanoyl]pyridin-2-yl}-8-azabicyclo[3.2.1]oct-3-endo-yl)benzene-1,4-dicarboxamide]",< 500 nM
18,"NC(=O)c1cc(Br)c(C(=O)N[C@H]2C[C@H]3CC[C@@H](C2)N3c2ccc(C(=O)C3CC3)cn2)cc1NC1CCC1 [2-bromo-5-(cyclobutylamino)-N-{8-[5-(cyclopropylcarbonyl)pyridin-2-yl]-8-azabicyclo[3.2.1]oct-3-endo-yl}benzene-1,4-dicarboxamide]",< 500 nM
19,"CCC(CC)Nc1cc(C(=O)NC2CC3CCC(C2)N3c2ccc(C(=O)N[C@H]3CCCNC3)cn2)ccc1C(N)=O (stereo partly drawn) [2-[(1-ethylpropyl)amino]-N4-[8-(5-{[(3S)-piperidin-3-ylamino]carbonyl}pyridin-2-yl)-8-azabicyclo[3.2.1]oct-3-endo-yl]benzene-1,4-dicarboxamide]",< 500 nM
20,Cc1c(C(=O)NC2CC3CCC(C2)N3c2ccc(C(=O)N[C@@H](C)c3ccc(N4CCN(C)CC4)cc3)cn2)cccc1N(C)C (stereo partly drawn) [6-[3-endo-({[3-(dimethylamino)-2-methylphenyl]carbonyl}amino)-8-azabicyclo[3.2.1]oct-8-yl]-N-{(1S)-1-[4-(4-methylpiperazin-1-yl)phenyl]ethyl}pyridine-3-carboxamide],2000 to 10000 nM
21,"NC(=O)c1cc(Br)c(C(=O)N[C@H]2C[C@H]3CC[C@@H](C2)N3c2ccc(C(=O)C3CC3)cn2)cc1NCC1CC1 [2-bromo-N-{8-[5-(cyclopropylcarbonyl)pyridin-2-yl]-8-azabicyclo[3.2.1]oct-3-endo-yl}-5-[(cyclopropylmethyl)amino]benzene-1,4-dicarboxamide]",< 500 nM
